Source: ChEMBL document CHEMBL2439955, “Synthesis and biological evaluation of 5-carbamoyl-2-phenylpyrimidine derivatives as novel and potent PDE4 inhibitors” (Bioorg Med Chem, 2013)

Legend:
[1] = target: T1, 3',5'-cyclic-AMP phosphodiesterase 4B (Homo sapiens, UniProt Q07343); assay: Inhibition of recombinant human PDE4B using cAMP as substrate after 30 mins
[2] = target: T1, 3',5'-cyclic-AMP phosphodiesterase 4B; assay: Inhibition of recombinant human PDE4B using cAMP as substrate at 1 uM after 30 mins
Splenocyte = assay: Inhibition of LPS-induced TNFalpha production in Balb/c mouse splenocytes after 18 to 24 hrs by AlphaLISA assay; assay type: functional, cell-based
Mus musculus [3] = assay: Inhibition of LPS-induced pulmonary neutrophilia in BALB/c mouse assessed as reduction of neutrophils level in bronchoalveolar lavage fluid at 1 mg/kg administered intratracheally 30 mins before LPS challenge measured after 4 to 5 hrs; assay type: functional; conditions: route endotracheal
[4] = target: T1, 3',5'-cyclic-AMP phosphodiesterase 4B; assay: Inhibition of recombinant human PDE4B using cAMP as substrate at 3 uM after 30 mins
[5] = target: T1, 3',5'-cyclic-AMP phosphodiesterase 4B; assay: Inhibition of recombinant human PDE4B using cAMP as substrate at 10 uM after 30 mins
[6] = Terminal half life in mouse at 10 mg/kg, ip; assay type: ADME, organism-based; parameters: dose 10 mg/kg, route intraperitoneal; conditions: in vivo, read-out: beta t1/2 (converted)
[7] = Metabolic stability of the compound in mouse liver microsomes after 30 mins; assay type: ADME, Microsome; conditions: read-out: Stability
[8] = Cmax in mouse at 10 mg/kg, ip; assay type: ADME, organism-based; parameters: dose 10 mg/kg, route intraperitoneal; conditions: in vivo
[9] = Octanol-phosphate buffered saline distribution coefficient, log D of the compound at pH 7.4; assay type: physicochemical
[10] = AUC in mouse at 10 mg/kg, ip; assay type: ADME, organism-based; parameters: dose 10 mg/kg, route intraperitoneal; conditions: plasma
Mus musculus [11] = assay: Inhibition of LPS-induced pulmonary neutrophilia in ip dosed BALB/c mouse assessed as reduction of neutrophils level in bronchoalveolar lavage fluid administered 30 mins before LPS challenge measured after 4 to 5 hrs; assay type: functional; conditions: read-out: ID50 (the source's name)

T1 sequence (Q07343 whole entry): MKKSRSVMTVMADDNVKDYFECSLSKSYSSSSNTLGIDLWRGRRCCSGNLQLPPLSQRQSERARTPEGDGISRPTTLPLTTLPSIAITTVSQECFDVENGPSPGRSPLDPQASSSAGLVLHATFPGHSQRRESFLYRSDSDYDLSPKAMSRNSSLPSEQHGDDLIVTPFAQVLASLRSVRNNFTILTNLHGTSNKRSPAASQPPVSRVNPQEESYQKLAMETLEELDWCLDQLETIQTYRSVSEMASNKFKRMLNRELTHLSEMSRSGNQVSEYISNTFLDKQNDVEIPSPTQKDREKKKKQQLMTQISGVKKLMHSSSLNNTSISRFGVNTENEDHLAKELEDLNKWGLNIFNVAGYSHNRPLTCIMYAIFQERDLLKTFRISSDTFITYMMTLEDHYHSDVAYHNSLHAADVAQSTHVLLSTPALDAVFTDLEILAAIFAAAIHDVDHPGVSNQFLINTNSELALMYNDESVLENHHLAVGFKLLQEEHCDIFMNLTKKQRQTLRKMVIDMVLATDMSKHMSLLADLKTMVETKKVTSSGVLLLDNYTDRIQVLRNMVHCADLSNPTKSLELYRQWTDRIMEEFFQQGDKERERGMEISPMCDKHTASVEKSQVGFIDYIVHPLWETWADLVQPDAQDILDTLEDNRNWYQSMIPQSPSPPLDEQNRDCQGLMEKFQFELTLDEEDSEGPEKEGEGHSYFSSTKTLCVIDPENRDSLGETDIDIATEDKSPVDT

SMILES | IC50 [1] [nM] | IC50 (Splenocyte) [nM] | other results
CC(C)(C)CNC(=O)Cc1ccc(Nc2nc(-c3ccsc3)ncc2C(N)=O)cc1 |  |  | inhibition [2]: 18%
CC(C)(C)CNC(=O)Cc1ccc(Nc2nc(-c3ccoc3)ncc2C(N)=O)cc1 | 11 | 1000 | 
CC(C)CNC(=O)Cc1ccc(Nc2nc(-c3ccccc3)nc3c2C(=O)NCC3)cc1 | 7.3 | 0.21 | inhibition in vivo at 1 mg/kg (Mus musculus [3]): 41%
CC(C)(C)CNC(=O)Cc1ccc(Nc2nc(N3CCCC3)ncc2C(N)=O)cc1 | 13 | 3.8 | 
CNC(=O)c1cnc(-c2ccccc2)nc1Nc1ccc(CC(=O)O)cc1 | 8200 |  | 
CSc1nc(-c2ccccc2)nc(Nc2ccc(CC(=O)O)cc2)c1C(N)=O | 2000 |  | 
CC(C)(C)CNC(=O)Cc1ccc(Nc2nc(-c3cccnc3)ncc2C(N)=O)cc1 | 29 | 23 | 
NC(=O)c1cnc(-c2ccccc2)nc1Nc1ccc(CC(=O)O)cc1 | 200 | 690 | 
O=C(O)Cc1ccc(Nc2nc(-c3ccccc3)ncc2C(=O)NO)cc1 |  |  | inhibition [4]: 42%
CN(C)C(=O)c1cnc(-c2ccccc2)nc1Nc1ccc(CC(=O)O)cc1 |  |  | inhibition [5]: 8%
NC(=O)Cc1ccc(Nc2nc(-c3ccccc3)ncc2C(N)=O)cc1 | 120 | 74 | 
CC(C)(C)CNC(=O)Cc1ccc(Nc2nc(-c3ccccc3)ncc2C(N)=O)cc1 | 8.3 | 3 | half-life [6]: 3.2 h; remaining at 0.5 h [7]: 52%; Cmax [8]: 1490 ng/mL; logD [9]: 4.9; AUC [10]: 3990 ng·h/mL; ED50 (Mus musculus [11]): 16 mg/kg
CC(C)(C)CNC(=O)Cc1ccc(Nc2nc(NN3CCCCC3)ncc2C(N)=O)cc1 | 6500 |  | 
NC(=O)c1cnc(-c2ccccc2)nc1Nc1ccc(CC(=O)NO)cc1 | 7.1 | 43 | 

Further lines, with some results ahead:

IC50 [1] [nM] | IC50 (Splenocyte) [nM] | SMILES | other results
110 |  | CC(C)(C)CNC(=O)Cc1ccc(Nc2nc(-c3cncnc3)ncc2C(N)=O)cc1 | 
47 | 460 | O=C(O)Cc1ccc(Nc2nc(-c3ccccc3)nc3c2C(=O)NCC3)cc1 | 
110 | 49 | CC(C)(C)NC(=O)Cc1ccc(Nc2nc(-c3ccccc3)ncc2C(N)=O)cc1 | 
16 | 18 | NC(=O)c1cnc(-c2ccccc2)nc1Nc1ccc(CC(=O)NCC2CC2)cc1 | 
490 | 4800 | CS(=O)(=O)NC(=O)Cc1ccc(Nc2nc(-c3ccccc3)ncc2C(N)=O)cc1 | 
11 | 12 | CC(C)CNC(=O)Cc1ccc(Nc2nc(-c3ccccc3)ncc2C(N)=O)cc1 | 
8.2 | 840 | CC(C)(C)CNC(=O)Cc1ccc(Nc2nc(-c3ccc4[nH]ccc4c3)ncc2C(N)=O)cc1 | 
16 | 7.1 | CN(C)c1ncc(C(N)=O)c(Nc2ccc(CC(=O)NCC(C)(C)C)cc2)n1 | 
120 | 47 | CCCNC(=O)Cc1ccc(Nc2nc(-c3ccccc3)ncc2C(N)=O)cc1 | 
 | 1.2 | O=C(Nc1c(Cl)cncc1Cl)c1ccc(OC(F)F)c(OCC2CC2)c1 [ROFLUMILAST] | inhibition in vivo at 1 mg/kg (Mus musculus [3]): 47%
3.7 | 9.6 | C=C(C)c1ncc(C(N)=O)c(Nc2ccc(CC(=O)NCC(C)(C)C)cc2)n1 | 
4000 |  | Cc1nc(-c2ccccc2)nc(Nc2ccc(CC(=O)O)cc2)c1C(N)=O | 
